Results on twelve molecules are retold here after publication PMC7531004, “Discovery of gramicidin A analogues with altered activities by multidimensional screening of a one-bead-one-compound library” (Nature Communications, 2020).

Where a SMILES comes first, the peptide text is derived from it. [ ]: non-standard residue; d: D form. The star is where a group is joined. NHCH2CH2OH = OCCN*; For = O=C*

Data set [1] has as its system Streptococcus pyogenes SSI-9. As to the kind of experiment: Antibacterial activity assay of bead-derived peptides (three concentrations). In kind it is cell-based. The arrangement: key: +++: inhibition by the 640-fold diluted peptide solution; ++: inhibition by the 160-fold diluted solution; +: inhibition by the 40-fold diluted solution; -: no inhibition. The conditions noted are these: S. pyogenes, bead-derived peptide solution, three concentrations. The method, boiled down:
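Bead-derived library peptide stocks in DMSO were tested undiluted and after 4- and 16-fold DMSO dilution against S. pyogenes SSI-9 (2 × 10^5 CFU/well) in cation-adjusted Mueller Hinton Broth with 5% laked horse blood. After 18 h at 37 °C, wells were scored for precipitation of grown cells.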

For data set [2], the system named is P388 mouse leukemia cells. The conditions noted are these: 92 h. An outline of the steps:
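First, library peptide stocks are diluted 250-fold in RPMI1640 with 10% heat-inactivated FBS. Next, they are mixed with P388 cells to give 1 × 10^4 cells/mL and incubated 92 h at 37 °C, 5% CO2. Finally, viability (%) is scored by WST-1 absorbance at 415 nm.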

The nature of data set [3]: H+/Na+ transport assay of bead-derived peptides (one-point).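 Note: relative to parent gramicidin A activity set to 1.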 It is filed as biochemical. The arrangement: key: relative activity; mean of two control wells = 1.00. The conditions noted are these: bead-derived peptide solution, EYPC/EYPG LUVs. An outline of the steps:
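Miniaturized 96-well format. LUVs with entrapped pyranine (1.0 mM) were exposed to peptide for 30 min at RT. Intensities were expressed relative to full lysis by Triton X-100 and no treatment, with control-well mean = 1.00.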

For `CC(C)C[C@@H](NC(=O)[C@H](Cc1c[nH]c2ccccc12)NC(=O)[C@H](NC(=O)[C@H](Cc1c[nH]c2ccccc12)NC(=O)[C@H](NC(=O)[C@H](Cc1c[nH]c2ccccc12)NC(=O)[C@@H](CC(C)C)NC(=O)[C@@H](NC(=O)[C@H](NC(=O)[C@H](C)NC(=O)[C@H](NC(=O)[C@H](C)NC(=O)CNC(=O)[C@@H](NC=O)C(C)C)[C@H](C)O)C(C)C)C(C)C)C(C)C)C(C)C)C(=O)N[C@@H](Cc1c[nH]c2ccccc12)C(=O)NCCO` [compound 2532] (For-VGA[dT]A[dV]V[dL]W[dV]W[dV]W[dL]W-NHCH2CH2OH), the antibacterial activity entry in data set [1] was “-”. The same molecule came in with a cell viability/% in data set [2] of 100.0%. For the same molecule, the “H+/Na+ transport activity normalized against the value of 1 (1.00)” value (from here on “H+/Na+ transport activity normalized”) in data set [3] was 1.22.
On the same counts, the results for `CC(C)C[C@@H](NC(=O)[C@H](C)NC(=O)[C@H](NC(=O)[C@H](C)NC(=O)CNC(=O)[C@@H](NC=O)C(C)C)C(C)C)C(=O)N[C@H](C(=O)N[C@@H](C(=O)N[C@@H](Cc1c[nH]c2ccccc12)C(=O)N[C@H](CC(C)C)C(=O)N[C@@H](Cc1c[nH]c2ccccc12)C(=O)N[C@H](CC(C)C)C(=O)N[C@@H](Cc1c[nH]c2ccccc12)C(=O)N[C@H](CC(C)C)C(=O)N[C@@H](Cc1c[nH]c2ccccc12)C(=O)NCCO)C(C)C)C(C)C` [compound 9897] (For-VGA[dV]A[dL]V[dV]W[dL]W[dL]W[dL]W-NHCH2CH2OH) are “+”, 8.1% and 1.04.
Take `CNC(=O)C[C@@H](NC(=O)[C@@H](NC(=O)[C@@H](CC(C)C)NC(=O)[C@H](C)NC(=O)[C@@H](CC(C)C)NC(=O)[C@H](C)NC(=O)CNC(=O)[C@@H](NC=O)C(C)C)C(C)C)C(=O)N[C@@H](Cc1c[nH]c2ccccc12)C(=O)N[C@H](CC(C)C)C(=O)N[C@@H](Cc1c[nH]c2ccccc12)C(=O)N[C@@H](C(=O)N[C@@H](Cc1c[nH]c2ccccc12)C(=O)N[C@H](CC(C)C)C(=O)N[C@@H](Cc1c[nH]c2ccccc12)C(=O)NCCO)C(C)C` [compound 8600] (For-VGA[dL]A[dL]V[dD](NHMe)W[dL]W[dV]W[dL]W-NHCH2CH2OH): the antibacterial activity entry in data set [1] is recorded as “-”. The molecule also gave a cell viability/% in data set [2] of 55.3%. Also, the “H+/Na+ transport activity normalized” value in data set [3] came to 1.20.
For `CC(C)C[C@@H](NC(=O)[C@H](C)NC(=O)[C@H](NC(=O)[C@H](C)NC(=O)CNC(=O)[C@@H](NC=O)C(C)C)[C@H](C)O)C(=O)N[C@H](C(=O)N[C@H](CC(C)C)C(=O)N[C@@H](Cc1c[nH]c2ccccc12)C(=O)N[C@H](CC(C)C)C(=O)N[C@@H](Cc1c[nH]c2ccccc12)C(=O)N[C@@H](C(=O)N[C@@H](Cc1c[nH]c2ccccc12)C(=O)N[C@@H](C(=O)N[C@@H](Cc1c[nH]c2ccccc12)C(=O)NCCO)C(C)C)C(C)C)C(C)C` [compound 569] (For-VGA[dT]A[dL]V[dL]W[dL]W[dV]W[dV]W-NHCH2CH2OH) the same measures were “-”, 100.0% and 1.01.
For `CC(C)C[C@@H](NC(=O)[C@H](C)NC(=O)[C@H](NC(=O)[C@H](C)NC(=O)CNC(=O)[C@@H](NC=O)C(C)C)[C@H](C)O)C(=O)N[C@H](C(=O)N[C@@H](C(=O)N[C@@H](Cc1c[nH]c2ccccc12)C(=O)N[C@@H](C(=O)N[C@@H](Cc1c[nH]c2ccccc12)C(=O)N[C@H](CC(C)C)C(=O)N[C@@H](Cc1c[nH]c2ccccc12)C(=O)N[C@H](CC(C)C)C(=O)N[C@@H](Cc1c[nH]c2ccccc12)C(=O)NCCO)C(C)C)C(C)C)C(C)C` [compound 9112] (For-VGA[dT]A[dL]V[dV]W[dV]W[dL]W[dL]W-NHCH2CH2OH) the same measures were “-”, 72.6% and 1.10.
On the same counts, the results for `CC(C)C[C@@H](NC(=O)[C@H](C)NC(=O)CNC(=O)[C@@H](NC=O)C(C)C)C(=O)N[C@@H](C)C(=O)N[C@@H](C(=O)N[C@H](C(=O)N[C@@H](C(=O)N[C@@H](Cc1c[nH]c2ccccc12)C(=O)N[C@H](CC(C)C)C(=O)N[C@@H](Cc1c[nH]c2ccccc12)C(=O)N[C@@H](C(=O)N[C@@H](Cc1c[nH]c2ccccc12)C(=O)N[C@H](CC(C)C)C(=O)N[C@@H](Cc1c[nH]c2ccccc12)C(=O)NCCO)C(C)C)[C@H](C)O)C(C)C)C(C)C` [compound 12185] (For-VGA[dL]A[dV]V[dT]W[dL]W[dV]W[dL]W-NHCH2CH2OH) are “+”, 98.1% and 1.02.
`CC(C)C[C@@H](NC(=O)[C@H](C)NC(=O)[C@H](NC(=O)[C@H](C)NC(=O)CNC(=O)[C@@H](NC=O)C(C)C)C(C)C)C(=O)N[C@H](C(=O)N[C@@H](C(=O)N[C@@H](Cc1c[nH]c2ccccc12)C(=O)N[C@@H](C(=O)N[C@@H](Cc1c[nH]c2ccccc12)C(=O)N[C@@H](C(=O)N[C@@H](Cc1c[nH]c2ccccc12)C(=O)N[C@@H](C(=O)N[C@@H](Cc1c[nH]c2ccccc12)C(=O)NCCO)C(C)C)C(C)C)C(C)C)C(C)C)C(C)C` [compound 13030] (For-VGA[dV]A[dL]V[dV]W[dV]W[dV]W[dV]W-NHCH2CH2OH): in data set [1], the antibacterial activity result is recorded as “+”. In data set [2], this molecule had a cell viability/% of 99.9%. Moreover, the “H+/Na+ transport activity normalized” value in data set [3] is listed as 1.42.
Turning to `CC(C)C[C@@H](NC(=O)[C@H](C)NC(=O)CNC(=O)[C@@H](NC=O)C(C)C)C(=O)N[C@@H](C)C(=O)N[C@H](CC(C)C)C(=O)N[C@H](C(=O)N[C@H](CC(C)C)C(=O)N[C@@H](Cc1c[nH]c2ccccc12)C(=O)N[C@@H](C(=O)N[C@@H](Cc1c[nH]c2ccccc12)C(=O)N[C@@H](C(=O)N[C@@H](Cc1c[nH]c2ccccc12)C(=O)N[C@@H](C(=O)N[C@@H](Cc1c[nH]c2ccccc12)C(=O)NCCO)C(C)C)[C@H](C)O)C(C)C)C(C)C` [compound 5178] (For-VGA[dL]A[dL]V[dL]W[dV]W[dT]W[dV]W-NHCH2CH2OH), the antibacterial activity entry in data set [1] was “-”. The cell viability/% in data set [2] is recorded as 100.0%. Also, the “H+/Na+ transport activity normalized” value in data set [3] turned out to be 1.22.
As for `CNC(=O)C[C@@H](NC(=O)[C@@H](NC(=O)[C@H](NC(=O)[C@H](C)NC(=O)[C@@H](CC(C)C)NC(=O)[C@H](C)NC(=O)CNC(=O)[C@@H](NC=O)C(C)C)C(C)C)C(C)C)C(=O)N[C@@H](Cc1c[nH]c2ccccc12)C(=O)N[C@@H](C(=O)N[C@@H](Cc1c[nH]c2ccccc12)C(=O)N[C@H](CC(C)C)C(=O)N[C@@H](Cc1c[nH]c2ccccc12)C(=O)N[C@H](CC(C)C)C(=O)N[C@@H](Cc1c[nH]c2ccccc12)C(=O)NCCO)C(C)C` [compound 3584] (For-VGA[dL]A[dV]V[dD](NHMe)W[dV]W[dL]W[dL]W-NHCH2CH2OH), the antibacterial activity result in data set [1] is recorded as “-”. Also, the cell viability/% in data set [2] came out at 100.0%. In data set [3], the “H+/Na+ transport activity normalized” value came out at 1.22.
Take `CNC(=O)C[C@@H](NC(=O)[C@H](Cc1c[nH]c2ccccc12)NC(=O)[C@H](NC(=O)[C@H](Cc1c[nH]c2ccccc12)NC(=O)[C@H](NC(=O)[C@H](Cc1c[nH]c2ccccc12)NC(=O)[C@H](NC(=O)[C@@H](NC(=O)[C@@H](CC(C)C)NC(=O)[C@H](C)NC(=O)[C@H](NC(=O)[C@H](C)NC(=O)CNC(=O)[C@@H](NC=O)C(C)C)C(C)C)C(C)C)C(C)C)C(C)C)C(C)C)C(=O)N[C@@H](Cc1c[nH]c2ccccc12)C(=O)NCCO` [compound 7479] (For-VGA[dV]A[dL]V[dV]W[dV]W[dV]W[dD](NHMe)W-NHCH2CH2OH): the antibacterial activity result in data set [1] is recorded as “-”. Moreover, the cell viability/% in data set [2] stood at 100.0%. In addition, in data set [3], the “H+/Na+ transport activity normalized” value is 1.00.
For `CC(C)C[C@@H](NC(=O)[C@H](C)NC(=O)CNC(=O)[C@@H](NC=O)C(C)C)C(=O)N[C@@H](C)C(=O)N[C@H](CC(C)C)C(=O)N[C@H](C(=O)N[C@H](CC(C)C)C(=O)N[C@@H](Cc1c[nH]c2ccccc12)C(=O)N[C@@H](C(=O)N[C@@H](Cc1c[nH]c2ccccc12)C(=O)N[C@H](CC(C)C)C(=O)N[C@@H](Cc1c[nH]c2ccccc12)C(=O)N[C@@H](C(=O)N[C@@H](Cc1c[nH]c2ccccc12)C(=O)NCCO)C(C)C)[C@H](C)O)C(C)C` [compound 10499] (For-VGA[dL]A[dL]V[dL]W[dT]W[dL]W[dV]W-NHCH2CH2OH) the same measures were “-”, 100.0% and 1.14.
On to `CNC(=O)C[C@@H](NC(=O)[C@H](Cc1c[nH]c2ccccc12)NC(=O)[C@@H](CC(C)C)NC(=O)[C@@H](NC(=O)[C@@H](CC(C)C)NC(=O)[C@H](C)NC(=O)[C@H](NC(=O)[C@H](C)NC(=O)CNC(=O)[C@@H](NC=O)C(C)C)C(C)C)C(C)C)C(=O)N[C@@H](Cc1c[nH]c2ccccc12)C(=O)N[C@@H](C(=O)N[C@@H](Cc1c[nH]c2ccccc12)C(=O)N[C@@H](C(=O)N[C@@H](Cc1c[nH]c2ccccc12)C(=O)NCCO)C(C)C)C(C)C` [compound 5380] (For-VGA[dV]A[dL]V[dL]W[dD](NHMe)W[dV]W[dV]W-NHCH2CH2OH), for which the antibacterial activity entry in data set [1] is given as “-”. The molecule also returned a cell viability/% in data set [2] of 100.0%. Besides, in data set [3], the “H+/Na+ transport activity normalized” value worked out at 1.05.
